The target in assay [1] is T1, PRMT5 (Homo sapiens, UniProt O14744).
T1 construct: purchased Viva (custom protein)
Description: PRMT5 biochemical IC50 assay with no cofactor. The following applies: PRMT5, no cofactor; read-out: No Cofactor/rel IC50. The source says: Table 1 indicates IC50 values (μM) against PRMT5 for exemplary compounds in the presence of SAM as cofactor, with no cofactor, and with MTA as cofactor, respectively (columns 4-6). […] Ki values can be calculated from the IC50 values as described in the Examples section. As detailed in the Examples section, for the assay performed in the presence of SAM, IC50=Ki×1.5 (Ki=IC50/1.5).

For assay [2], the target named is T1, PRMT5. Briefly: PRMT5 biochemical IC50 assay with SAM as cofactor. The following applies: PRMT5, SAM as cofactor; read-out: SAM IC50.
For assay [3], the system named is HAP1 MTAP-deleted cell line. Description: SDMA in-cell western assay, HAP1 MTAP-deleted. In kind it is cell-based. To be noted: for IC50: Homo sapiens, HAP1, SDMA in-cell western, HAP1 MTAP-deleted, read-out: HAP1 MTAP deleted IC50; for MTAP intact/deleted ratio: IC50 ratio HAP1 MTAP-intact / HAP1 MTAP-deleted, SDMA in-cell western. In outline:
(§1)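 Compounds were tested in HAP1 cells differing only in MTAP status (endogenous expression versus null). Cellular SDMA levels were then measured by in-cell western, giving an IC50 in each background.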

Assay [4] relates to HAP1 MTAP-deleted cell line. Description: Viability assay, MTAP-deleted cell line. The assay is classed as cell-based. The following applies: Homo sapiens, HAP1, viability assay, MTAP-deleted cell line; read-out: HAP1 MTAP deleted viability. The source says:
Table 1 additionally indicates IC50 values in a viability assay for the MTAP-deleted cell line (column 10), indicating the effect of treatment with compound on cell survival.

Assay [5] relates to HAP1 MTAP-intact cell line. Briefly: SDMA in-cell western assay, HAP1 MTAP-intact. The assay is classed as cell-based. To be noted: Homo sapiens, HAP1, SDMA in-cell western, HAP1 MTAP-intact; read-out: MTAP HAP1 intact IC50. In outline:
as §1

Assay [6] has as its target T1, PRMT5. Briefly: PRMT5 biochemical IC50 assay with MTA as cofactor. To be noted: PRMT5, MTA as cofactor; read-out: MTA IC50.

T1 sequence (O14744 whole entry): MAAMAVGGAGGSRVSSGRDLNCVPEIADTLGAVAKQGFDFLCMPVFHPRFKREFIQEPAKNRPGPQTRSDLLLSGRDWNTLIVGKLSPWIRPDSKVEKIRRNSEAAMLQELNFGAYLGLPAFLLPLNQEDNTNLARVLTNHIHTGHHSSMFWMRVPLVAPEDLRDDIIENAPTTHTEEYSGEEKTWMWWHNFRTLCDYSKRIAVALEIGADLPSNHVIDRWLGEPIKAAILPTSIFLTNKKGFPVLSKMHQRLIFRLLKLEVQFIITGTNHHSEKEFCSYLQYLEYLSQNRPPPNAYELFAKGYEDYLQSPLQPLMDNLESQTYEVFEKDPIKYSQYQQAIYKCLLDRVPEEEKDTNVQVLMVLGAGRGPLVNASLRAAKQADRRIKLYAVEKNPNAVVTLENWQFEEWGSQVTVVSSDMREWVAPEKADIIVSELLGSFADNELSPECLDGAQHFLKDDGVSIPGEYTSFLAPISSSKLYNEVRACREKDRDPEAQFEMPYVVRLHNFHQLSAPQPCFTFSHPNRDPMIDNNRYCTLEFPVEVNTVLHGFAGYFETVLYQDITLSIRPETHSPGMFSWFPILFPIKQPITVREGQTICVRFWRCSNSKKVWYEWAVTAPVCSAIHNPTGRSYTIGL
T1 sequence (Q9BQA1 whole entry partner): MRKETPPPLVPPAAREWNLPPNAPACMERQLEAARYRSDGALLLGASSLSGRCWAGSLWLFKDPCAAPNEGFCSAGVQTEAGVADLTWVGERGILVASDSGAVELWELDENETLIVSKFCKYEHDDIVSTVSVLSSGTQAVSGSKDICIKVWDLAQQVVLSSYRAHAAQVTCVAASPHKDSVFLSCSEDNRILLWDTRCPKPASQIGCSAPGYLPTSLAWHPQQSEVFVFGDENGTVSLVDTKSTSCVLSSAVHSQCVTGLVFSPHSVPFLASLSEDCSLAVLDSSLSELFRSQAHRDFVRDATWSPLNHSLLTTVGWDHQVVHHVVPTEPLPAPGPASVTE

For `C[C@H]1CC[C@H](c2cccc(N(C)C)c2)N(C(=O)C(=O)Nc2cncc(C(N)=O)c2)C1` (single isomer, unassigned) [Compound 374], the IC50 on PRMT5 [1] was above 500 nM; at PRMT5 [2], above 500 nM; in assay [3], above 1000 nM; in assay [4] it was above 10000 nM; in assay [5], above 1000 nM; on PRMT5 [6] it was above 500 nM. Further, the MTAP intact/deleted ratio entry in assay [3] is reported as “C (an IC50 ratio of less than 3 fold)”.
Consider `C[C@@H]1CC[C@@H](c2cccc(N(C)C)c2)N(C(=O)C(=O)Nc2cncc(C(N)=O)c2)C1` (single isomer, unassigned) [Compound 375], for which the IC50 on PRMT5 [1] was 50 to 500 nM; at PRMT5 [2], 50 to 500 nM; in assay [3], below 100 nM; in assay [4], 1000 to 10000 nM; in assay [5], above 1000 nM; at PRMT5 [6], below 50 nM. Further, the MTAP intact/deleted ratio result in assay [3] is “A (an IC50 ratio greater than or equal to 10 fold)”.
As to `C[C@H]1CC[C@H](c2ccc3c(c2)C[C@H](C)O3)N(C(=O)C(=O)Nc2cncc(C(N)=O)c2)C1` (single isomer, unassigned) [Compound 376], the IC50 at PRMT5 [1] was above 500 nM; on PRMT5 [2] it was above 500 nM; in assay [3] it was above 1000 nM; in assay [4], above 10000 nM; in assay [5], above 1000 nM; on PRMT5 [6], above 500 nM. In assay [3], the MTAP intact/deleted ratio entry is listed as “C (an IC50 ratio of less than 3 fold)”.
Regarding `C[C@H]1CC[C@H](c2ccc3c(c2)C[C@@H](C)O3)N(C(=O)C(=O)Nc2cncc(C(N)=O)c2)C1` (single isomer, unassigned) [Compound 377], the IC50 at PRMT5 [1] was above 500 nM; at PRMT5 [2], above 500 nM; in assay [3], above 1000 nM; in assay [4], above 10000 nM; in assay [5], above 1000 nM; on PRMT5 [6], above 500 nM. Besides, the MTAP intact/deleted ratio entry in assay [3] was “C (an IC50 ratio of less than 3 fold)”.
As to `Cc1cc(NC(=O)C(=O)N2CC[C@H](C#N)C[C@@H]2c2ccccc2)cnc1N` (single isomer, unassigned) [Compound 380], the IC50 on PRMT5 [1] is above 500 nM; at PRMT5 [2] it was above 500 nM; in assay [3], above 1000 nM; in assay [4], above 10000 nM; in assay [5], above 1000 nM; on PRMT5 [6] it was above 500 nM. Further, the MTAP intact/deleted ratio result in assay [3] is on record as “C (an IC50 ratio of less than 3 fold)”.
`C[C@@H]1CC[C@@H](c2ccc(N)cc2)N(C(=O)C(=O)Nc2cncc(C(N)=O)c2)C1` (single isomer, unassigned) [Compound 381]: the IC50 at PRMT5 [1] was below 50 nM; on PRMT5 [2], 50 to 500 nM; in assay [3] it was below 100 nM; in assay [4] it was below 1000 nM; in assay [5], above 1000 nM; on PRMT5 [6], below 50 nM. For the same molecule, the MTAP intact/deleted ratio entry in assay [3] is recorded as “A (an IC50 ratio greater than or equal to 10 fold)”.
`C[C@H]1CC[C@H]([C@H]2CC[C@@H](O)CC2)N(C(=O)C(=O)Nc2cncc(C(N)=O)c2)C1` (single isomer, unassigned) [Compound 382]: the IC50 on PRMT5 [1] was above 500 nM; at PRMT5 [2], above 500 nM; in assay [3], above 1000 nM; in assay [4], above 10000 nM; in assay [5], above 1000 nM; on PRMT5 [6], above 500 nM. Also, in assay [3], the MTAP intact/deleted ratio entry is listed as “C (an IC50 ratio of less than 3 fold)”.
Turning to `Cc1c(NC(=O)C(=O)N2C[C@@H](C)CC[C@@H]2c2ccc(O)cc2)cnc(N)c1C` (single isomer, unassigned) [Compound 383], the IC50 is 50 to 500 nM at PRMT5 [1]; 50 to 500 nM on PRMT5 [2]; below 100 nM in assay [3]; below 1000 nM in assay [4]; above 1000 nM in assay [5]; below 50 nM on PRMT5 [6]. In addition, the MTAP intact/deleted ratio entry in assay [3] was “A (an IC50 ratio greater than or equal to 10 fold)”.

Source of the values: patent US11999727B2 (Tango Therapeutics, Inc., priority 2020, dated 2024).
